The values that follow come from paper PMC12785511, “Integrative Profiling for BBB Permeability Using Capillary Electrochromatography, Experimental Physicochemical Parameters, and Ensemble Machine Learning” (International Journal of Molecular Sciences, 2025).

Data set [1] is described as follows: Sirius T3 automated potentiometric (pH-metric) titrations, pKa.
Experimental: (§1) Using the Sirius T3 device, the physicochemical properties of the reference drugs were determined by automated potentiometric titrations. The compounds’ acidity was measured by determining their pKa parameters. […] The obtained psKa values were next extrapolated to the 0% content of methanol (pure ISA water) using the Yasuda–Shedlovsky extrapolation plots. The lipophilicity of the research compounds (log P parameters) was measured by the automated potentiometric method as well, based on the previously obtained compounds’ pKa values. The aqueous pH-metric titrations were carried out in the presence of n-octanol—an immiscible water partition solvent. […] The log P parameters were determined based on the differences between the apparent poKa and aqueous pKa values in three independent titrations conducted with diverse volume ratios of the aqueous and n-octanol phases. Log D7.4 values were calculated automatically by the Sirius T3 Refine software (version 2.0.0.0) based on the obtained log P and pKa values.
Data set [2] can be described thus: physchem. The conditions noted are these: for logD: pH 7.4.
Experimental: as §1
The conditions of data set [3]: cited from earlier work.
A short description of data set [4]: open-tubular capillary electrochromatography (CEC), permeability k′ parameter. Particulars: pH 7.4 HEPES buffer 40 mM, migration times in coated and uncoated capillary, mean ± SD of three independent experiments. The class given is in vitro ADME.
Experimental: The separation HEPES buffer, POPC/PS liposomes (80:20 mol% ratio; large unilamellar vesicles type; LUV), and test samples were prepared according to the protocol described earlier [45]. […] To complete the coating procedure, the capillary was left to stand filled with the liposome solution for 15 min.
Since the reference drugs tested in this study are compounds ionized at pH 7.4, their migration times determined in the uncoated and coated capillary variants were used in the k′ permeability parameter calculations. At first, the experiments were conducted in the liposome-untreated capillary. Next, after coating the capillary with the inner liposomal layer, the migration times of analytes were evaluated once again in the coated one. […] The pH 7.4 HEPES buffer (40 mM) was used as the background electrolyte solution in all CEC experiments.
The CEC permeability k′ parameter was calculated for each reference drug based on its experimentally determined migration times in the uncoated and coated capillary variants using Equation (2) [56]:(2) k^′=tR(1/tEOF+ 1/tR^′− 1/tEOF^′)−1 where tR and tEOF are the migration times of the analyte and EOF marker in the coated capillary, respectively, and tR′ and tEOF′ are analogical migration times in the uncoated capillary.
Data set [5] is described as follows: physchem.
Experimental: as §1
Data set [6] is described as follows: Sirius T3 automated potentiometric titrations with n-octanol, log P / log D. Particulars: for logP / logD: n-octanol/water.
Experimental: as §1
Setting [7] is: experimental in vivo measurements from rats, data retrieved from literature.
Setting [8] is: ionic strength adjusted (ISA) water ([…] KCl), pKa ± SD, […] ISA water or Yasuda–Shedlovsky extrapolation from methanol cosolvent, value used for regression.

Read-outs that look alike come from different tables or passages of the source.

As usually defined, the pKa is the pH at which an ionisable group is half protonated. In general, logP refers to a log measure of how a compound divides between an organic and an aqueous phase. Low values mean a more hydrophilic compound, high ones a more lipophilic compound. As a reminder, the logD is the decadic logarithm of the distribution of all forms, ionised or not, between an organic phase and buffer at a given pH. High values mean higher lipophilicity, low ones lower lipophilicity. As for `O=C(O)CCCc1ccc(N(CCCl)CCCl)cc1` [chlorambucil], the pKa in data set [1] was found to be 4.72 ± 0.04. Besides, in “physchem [2]”, the logP is 3.71 ± 0.02 and the pH-dependent lipophilicity (logD) was found to be 1.07. Also, the “Log BB” value in data set [3] (setting [7]) was −1.70. Besides, the “k′ ± SD (CEC)” value in data set [4] is reported as 0.00397 ± 0.00087.

As to `COc1ccc2c3c1O[C@H]1[C@@H](O)C=C[C@H]4[C@@H](C2)N(C)CC[C@@]341` [codeine], in the data set “physchem [2]”, the logP stood at 1.14 ± 0.01 and the logD amounted to 0.26. In addition, the “Log BB” value in data set [3] (rat, in vivo) was 0.55. The “k′ ± SD (CEC)” value in data set [4] is −0.01188 ± 0.00888.

Regarding `CCC1(C2=CCCCC2)C(=O)NC(=O)NC1=O` [cyclobarbital], the logD in “physchem [2]” is 1.16. In addition, the “Log BB” value in data set [3] (rat, in vivo) is listed as −0.30. In addition, the “k′ ± SD (CEC)” value in data set [4] came to 0.00186 ± 0.00088.

In the data set “physchem [2]”, `COc1ccc2c3c1O[C@H]1C[C@@H](O)C=C[C@@]31CCN(C)C2` [galanthamine] showed a logP of 1.15 and a log distribution coefficient (logD) of 0.18. Moreover, the “Log BB” value in data set [3] (rat, in vivo) is on record as 0.00.

Compound `CN(C)C(=O)C(CCN1CCC(O)(c2ccc(Cl)cc2)CC1)(c1ccccc1)c1ccccc1` [loperamide] registered a log distribution coefficient (logD) in the data set “physchem [2]” of 3.21. Also, the “Log BB” value in data set [3] (setting [7]) is listed as 0.70. For the same compound, the “k′ ± SD (CEC)” value in data set [4] is recorded as 0.0147 ± 0.00102.

As to `CCC1(c2ccccc2)C(=O)NC(=O)NC1=O` [phenobarbital], the logD in “physchem [2]” worked out at 0.98. The “Log BB” value in data set [3] (rat, in vivo) is listed as −0.12. In addition, the “k′ ± SD (CEC)” value in data set [4] is recorded as −0.01824 ± 0.00855.

Take `CNC(=O)Oc1ccc2c(c1)[C@]1(C)CCN(C)[C@@H]1N2C` [physostigmine]: in data set [3] (rat, in vivo), the “Log BB” value is 0.08. In the data set “physchem [5]”, this compound gave a pKa of 8.24 ± 0.04. Further, the “k′ ± SD (CEC)” value in data set [4] is 0.01268 ± 0.00087.

In turn, `CCN(C)C(=O)Oc1cccc([C@H](C)N(C)C)c1` [rivastigmine] came in with a logD in the data set “physchem [2]” of 0.66. Moreover, in data set [4], the “k′ ± SD (CEC)” value is −0.00018 ± 0.00009.

In turn, `CCCN(CCC)CCc1cccc2c1CC(=O)N2` [ropinirole] displayed a pKa in the data set “physchem [5]” of 9.7 ± 0.05. The “k′ ± SD (CEC)” value in data set [4] is reported as −0.01252 ± 0.00126.

As to `S=C(NC1CCCCC1)N1CCC(c2cnc[nH]2)CC1` [thioperamide], the logD in the data set “physchem [2]” came to 2.27. Besides, the “Log BB” value in data set [3] (setting [7]) is −0.16. In addition, the “k′ ± SD (CEC)” value in data set [4] was 0.01849 ± 0.00363.

On to `Cc1ccc(/C(=C\CN2CCCC2)c2ccccn2)cc1` [triprolidine], for which the lipophilicity (logP) in data set [6] came out at 3.87 ± 0.01. Besides, in data set [6] (pH 7.4, calculated based on the experimentally obtained pKa and log P data), the “Log D7.4” value is given as 1.88. Moreover, the pKa in data set [1] (setting [8]) is 9.39 ± 0.06. The “Log BB” value in data set [3] (setting [7]) was 0.78. The “k′ ± SD (CEC)” value in data set [4] stood at 0.01006 ± 0.00233.

Consider `COc1ccc(C(CN(C)C)C2(O)CCCCC2)cc1` (stereo not shown) [venlafaxine], for which, in data set [6], the lipophilicity (logP) came out at 2.97. The logD in data set [6] (pH 7.4) stood at 0.7. Also, the pKa in data set [1] (setting [8]) was 9.67 ± 0.02. In addition, the “Log BB” value in data set [3] (setting [7]) is 0.48. In data set [4], the “k′ ± SD (CEC)” value is −0.01411 ± 0.00205.

As for `CN(C)CCc1c[nH]c2ccc(C[C@H]3COC(=O)N3)cc12` [zolmitriptan], the logP in data set [6] turned out to be 1.19 ± 0.01. Further, the logD in data set [6] (pH 7.4) is -1.01. For the same compound, the pKa in data set [1] (setting [8]) is 9.6 ± 0.05. Moreover, the “Log BB” value in data set [3] (setting [7]) is −1.40. Moreover, the “k′ ± SD (CEC)” value in data set [4] is −0.00882 ± 0.00356.
